From ChEMBL document CHEMBL3638657, “Substituted phenylureas and phenylamides as vanilloid receptor ligands” (2015)

Tests used:
[1] = molecular target: Transient receptor potential cation channel subfamily V member 1 (Rattus norvegicus, UniProt O35433); assay: FLIPR Assay: The agonistic or antagonistic effect of the substances to be tested on the rat-species vanilloid receptor 1 (VR1/TRPV1) can be determined using the following assay. In this assay, the influx of Ca2+ through the receptor channel is quantified with the aid of a Ca2+-sensitive dye (type Fluo-4, Molecular Probes Europe BV, Leiden, the Netherlands) in a fluorescent imaging plate reader (FLIPR, Molecular Devices, Sunnyvale, USA).Method:Complete medium: 50 ml HAMS F12 nutrient mixture (Gibco Invitrogen GmbH, Karlsruhe, Germany) with10% by volume of FCS (foetal calf serum, Gibco Invitrogen GmbH, Karlsruhe, Germany, heat-inactivated);2 mM L-glutamine (Sigma, Munich, Germany);1% by weight of AA solution (antibiotic/antimyotic solution, PAA, Pasching, Austria) and 25 ng/ml NGF medium (2.5 S, Gibco Invitrogen GmbH, Karlsruhe, Germany).
[2] = molecular target: Transient receptor potential cation channel subfamily V member 1 (Homo sapiens, UniProt Q8NER1); assay: FLIPR Assay: The agonistic or antagonistic effect of the substances to be tested on the vanilloid receptor 1 (VR1) can also be determined using the following assay. In this assay, the influx of Ca2+ through the channel is quantified with the aid of a Ca2+-sensitive dye (type Fluo-4, Molecular Probes Europe BV, Leiden, the Netherlands) in a fluorescent imaging plate reader (FLIPR, Molecular Devices, Sunnyvale, USA).Method:Chinese hamster ovary cells (CHO K1 cells, European Collection of Cell Cultures (ECACC) United Kingdom) are stably transfected with the VR1 gene. For functional testing, these cells are plated out on poly-D-lysine-coated black 96-well plates having a clear base (BD Biosciences, Heidelberg, Germany) at a density of 25,000 cells/well. The cells are incubated overnight at 37 C. and 5% CO2 in a culture medium (Ham's F12 nutrient mixture, 10% by volume of FCS (foetal calf serum), 18 ug/ml of L-proline). The next day the cells are incubated with Fluo-4.; assay type: cell-based
Transient receptor potential cation channel subfamily V member 1 (Homo sapiens, UniProt Q8NER1), sequence (Q8NER1 whole entry): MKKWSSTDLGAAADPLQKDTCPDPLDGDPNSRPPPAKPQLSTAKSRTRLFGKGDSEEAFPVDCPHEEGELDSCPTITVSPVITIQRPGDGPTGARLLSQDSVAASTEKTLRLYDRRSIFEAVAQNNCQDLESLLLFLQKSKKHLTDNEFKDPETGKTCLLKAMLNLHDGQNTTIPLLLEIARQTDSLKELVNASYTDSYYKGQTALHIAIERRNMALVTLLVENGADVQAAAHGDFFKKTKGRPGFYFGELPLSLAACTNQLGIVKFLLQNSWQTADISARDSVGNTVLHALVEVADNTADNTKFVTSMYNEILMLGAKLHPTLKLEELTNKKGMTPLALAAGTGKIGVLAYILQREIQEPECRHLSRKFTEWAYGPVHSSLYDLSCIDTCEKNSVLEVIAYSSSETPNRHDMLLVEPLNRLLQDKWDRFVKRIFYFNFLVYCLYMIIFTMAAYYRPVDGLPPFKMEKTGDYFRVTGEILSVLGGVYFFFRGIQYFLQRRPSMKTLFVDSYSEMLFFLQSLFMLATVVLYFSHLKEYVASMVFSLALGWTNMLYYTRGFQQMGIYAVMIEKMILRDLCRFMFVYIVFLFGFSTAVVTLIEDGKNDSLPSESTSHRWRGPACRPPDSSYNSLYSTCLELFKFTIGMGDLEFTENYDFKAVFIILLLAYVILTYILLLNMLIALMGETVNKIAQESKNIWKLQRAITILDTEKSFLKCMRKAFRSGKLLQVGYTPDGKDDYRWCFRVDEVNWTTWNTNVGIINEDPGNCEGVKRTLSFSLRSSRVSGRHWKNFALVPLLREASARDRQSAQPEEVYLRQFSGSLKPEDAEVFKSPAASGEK

Transient receptor potential cation channel subfamily V member 1 (Rattus norvegicus, UniProt O35433), sequence (O35433 whole entry): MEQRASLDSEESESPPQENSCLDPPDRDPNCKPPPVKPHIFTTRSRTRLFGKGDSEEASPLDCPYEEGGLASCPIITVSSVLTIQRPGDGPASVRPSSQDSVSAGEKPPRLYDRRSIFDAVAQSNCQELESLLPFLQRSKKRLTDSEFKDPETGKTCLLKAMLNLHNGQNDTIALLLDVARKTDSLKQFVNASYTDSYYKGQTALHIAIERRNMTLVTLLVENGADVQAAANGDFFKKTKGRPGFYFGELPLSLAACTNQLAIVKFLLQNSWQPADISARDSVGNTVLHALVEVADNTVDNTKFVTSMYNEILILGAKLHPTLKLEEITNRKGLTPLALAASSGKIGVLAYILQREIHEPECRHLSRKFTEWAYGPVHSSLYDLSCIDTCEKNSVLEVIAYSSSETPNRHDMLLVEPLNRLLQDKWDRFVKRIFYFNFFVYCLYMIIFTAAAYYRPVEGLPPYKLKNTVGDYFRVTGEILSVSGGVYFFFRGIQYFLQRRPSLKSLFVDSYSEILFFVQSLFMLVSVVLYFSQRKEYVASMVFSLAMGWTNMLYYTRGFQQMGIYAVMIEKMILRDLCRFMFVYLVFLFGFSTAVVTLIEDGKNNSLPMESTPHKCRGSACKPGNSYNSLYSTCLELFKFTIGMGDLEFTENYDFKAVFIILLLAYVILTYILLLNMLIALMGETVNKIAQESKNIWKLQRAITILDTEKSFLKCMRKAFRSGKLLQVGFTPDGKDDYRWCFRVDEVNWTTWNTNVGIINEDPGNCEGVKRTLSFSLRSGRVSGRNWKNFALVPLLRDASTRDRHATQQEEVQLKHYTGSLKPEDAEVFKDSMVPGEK

- Ki [1]: 5.9 nM
- Ki [2]: 8 nM
Compound: Cc1ccc(-n2nc(C(C)(C)C)cc2CNC(=O)C(C)c2ccc(NS(C)(=O)=O)c(F)c2)cc1 (configuration not stated)
